This experiment addresses HilD (Salmonella enterica, UniProt P0CL08). The experiment in a line: microscale thermophoresis with dye-labeled purified HilD; supported by thermal shift, DARTS and EMSA. It counts as binding.

These results are taken from PMC7546796, “Myricanol Inhibits the Type III Secretion System of Salmonella enterica Serovar Typhimurium by Interfering With the DNA-Binding Activity of HilD” (Frontiers in Microbiology, 2020).

The structures appear in SMILES notation.

HilD, sequence (P0CL08 whole entry): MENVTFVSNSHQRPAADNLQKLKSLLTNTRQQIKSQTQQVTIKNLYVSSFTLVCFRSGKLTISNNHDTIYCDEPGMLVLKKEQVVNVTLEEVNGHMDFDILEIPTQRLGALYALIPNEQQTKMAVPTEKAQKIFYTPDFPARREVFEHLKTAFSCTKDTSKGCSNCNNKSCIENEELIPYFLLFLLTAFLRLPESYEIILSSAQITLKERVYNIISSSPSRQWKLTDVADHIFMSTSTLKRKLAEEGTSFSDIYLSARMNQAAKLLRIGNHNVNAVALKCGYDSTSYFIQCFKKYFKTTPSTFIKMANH

As usually defined, the Kd is the concentration at which binding is half-saturated. For the compound `COc1c2cc(c(O)c1OC)CCCC[C@@H](O)CCc1ccc(O)c-2c1` [compound 1, myricanol], the Kd was 1.38 ± 0.53 µM.
